Each structure is given as a SMILES string.

The target in this assay is T1, CCR4 (Homo sapiens, UniProt P51679).
T1 construct: CEM Cells Endogenous Express CCR4; endogenous in cells; host or cells: CEM cells
T1 sequence (P51679 1-360): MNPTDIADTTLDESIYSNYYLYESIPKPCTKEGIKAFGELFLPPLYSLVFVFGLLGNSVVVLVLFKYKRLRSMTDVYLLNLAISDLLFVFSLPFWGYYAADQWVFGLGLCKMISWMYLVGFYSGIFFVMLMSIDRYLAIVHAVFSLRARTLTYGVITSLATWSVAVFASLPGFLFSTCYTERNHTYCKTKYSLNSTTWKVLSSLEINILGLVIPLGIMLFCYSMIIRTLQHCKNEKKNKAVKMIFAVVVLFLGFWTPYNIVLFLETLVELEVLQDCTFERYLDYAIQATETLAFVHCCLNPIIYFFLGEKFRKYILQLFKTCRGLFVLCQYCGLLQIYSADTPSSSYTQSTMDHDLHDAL
As to the kind of experiment: CEM cell chemotaxis (migration) assay to CCL22 (MDC) in 100% Fetal Bovine Serum (FBS). It is filed as cell-based. To be noted: CEM cells in 100% FBS with 1% HEPEs; recombinant human CCL22 0.1 nM; 37° C. 60 minutes. An excerpt: CEM Cells Endogenous Express CCR4
A chemotaxis assay can be used to determine the efficacy of potential receptor antagonists at blocking the migration mediated through chemokine receptors, such as CCR4. This assay is routinely performed using the ChemoTX® microchamber system with a 5 μm pore-sized polycarbonate membrane.
FBS: CEM Cells are collected by centrifugation at 400×g at room temperature, then suspended at 5 million/ml in 100% Fetal Bovine Serum (FBS) with 1% HEPEs. The compound being tested is serially diluted from a maximum final concentration of 10 μM (or an equivalent volume of its solvent (DMSO)) and is then added to the cell/buffer mixture. Separately, recombinant human CCL22 (MDC) at its EC50 concentration (0.1 nM) is placed in the lower wells of the ChemoTX® plate. The 5-μm (pore size) polycarbonate membrane was placed onto the plate, and 20 μL of the cell/compound mixture is transferred onto each well of the membrane. The plates are incubated at 37° C. for 60 minutes, after which the polycarbonate membranes are removed and 5 μl of the DNA-intercalating dye CyQUANT (Invitrogen, Carlsbad, CA) is added to the lower wells. The amount of fluorescence, corresponding to the number of migrated cells, is measured using a Spectrafluor Plus plate reader (TECAN, San Jose, CA).
As usually defined, the IC50 is the point on the concentration scale where inhibition reaches its midpoint. As for `C[C@@H](Nc1nc(N2CCN(C(=O)[C@@H]3COCCN3)CC2)ncc1Cl)c1ccc(Cl)cc1Cl` [Example 1.128], the IC50 fell in the range of 100 to 1000 nM.
Consider `C[C@@H](Nc1nc(N2CCN(C(=O)[C@H]3CC(F)(F)CN3)CC2)ncc1Cl)c1ccc(Cl)cc1Cl` [Example 1.146], for which the IC50 lay within 100 to 1000 nM.
In the case of `C[C@@H](Nc1nc(N2CCN(C(=O)[C@H]3CCCNC3)CC2)ncc1Cl)c1ccc(Cl)cc1Cl` [Example 1.201] it was less than 100 nM.
In the case of `C[C@@H](Nc1nc(N2CCN(C(=O)[C@H]3CCCN3)CC2)ncc1C1CC1)c1ccc(Cl)cc1Cl` [Example 1.114] it was less than 100 nM; in that of `C[C@@H](Nc1cc(C(F)(F)F)nc(N2CCN(C(=O)[C@H]3CCC(=O)N3)CC2)n1)c1ccc(Cl)cc1Cl` [Example 1.092], 100 to 1000 nM.
In the case of `C[C@@H](Nc1nc(N2CC[C@H](NC(=O)[C@H]3CCCN3)[C@H](O)C2)ncc1F)c1ccc(Cl)cc1Cl` [Example 1.090] it was less than 100 nM; in that of `C[C@@H](Nc1nc(N2CCC(O[C@H]3CCN(CCO)C3)CC2)ncc1Cl)c1ccc(Cl)cc1Cl` [Example 1.193], less than 100 nM; in that of `COc1cnc(N2CCN(C(=O)[C@H]3CCN(C)C3)CC2)nc1N[C@H](C)c1ccc(Cl)cc1Cl` [Example 1.189], less than 100 nM.
For the compound `COc1cnc(N2CCN(C(=O)C[C@H]3CCCN3)CC2)nc1N[C@H](C)c1ccc(Cl)cc1Cl` [Example 1.164], the IC50 was less than 100 nM.
In the case of `C[C@@H](Nc1nc(N2CC[C@H](NC(=O)[C@H]3C[C@@H](O)CN3)[C@@H](O)C2)ncc1Cl)c1ccc(Cl)cc1Cl` [Example 1.216] it was 100 to 1000 nM; in that of `C[C@@H](Nc1nc(N2CCN(C(=O)[C@]3(C)CCCN3)CC2)ncc1Cl)c1ccc(Cl)cc1Cl` [Example 1.208], less than 100 nM; in that of `C[C@@H](Nc1nc(N2CCN(C(=O)[C@H]3CCCN3C(N)=O)CC2)ncc1Cl)c1ccc(Cl)cc1Cl` [Example 1.138], 100 to 1000 nM.
Regarding `C[C@@H](Nc1nc(N2CCC(C(=O)N[C@@H]3CCNC3=O)CC2)ncc1Cl)c1ccc(Cl)cc1Cl` [Example 1.228], the IC50 was 100 to 1000 nM.
For `C[C@@H](Nc1nc(N2CCN(C(=O)[C@H]3CCN(C)C3)CC2)ncc1Cl)c1ccc(Cl)cc1Cl` [Example 1.143], the IC50 was less than 100 nM.
The value for `COc1cnc(N2CCN(C(=O)C34CC(CN3)C4)CC2)nc1N[C@H](C)c1ccc(Cl)cc1Cl` [Example 1.121] was less than 100 nM; that for `C[C@@H](Nc1ccnc(N2CCN(C(=O)[C@H]3CCC(=O)N3)CC2)n1)c1ccc(Cl)cc1Cl` [Example 1.116] was less than 100 nM.
The value for `C[C@@H](Nc1nc(N2CCC(O[C@@H]3CNC[C@H]3F)CC2)ncc1Cl)c1ccc(Cl)cc1Cl` [Example 1.186] was less than 100 nM; that for `C[C@@H](Nc1nc(N2CCN(C(=O)[C@H]3CCC(=O)N3)CC2)ncc1OC(F)F)c1ccc(Cl)cc1Cl` [Example 1.171] was less than 100 nM; that for `C[C@@H](Nc1nc(N2CCN(C(=O)[C@H]3CCC(C)(C)N3)CC2)ncc1Cl)c1ccc(Cl)cc1Cl` [Example 1.225] was less than 100 nM.
In the case of `C[C@@H](Nc1nc(N2CCN(C(=O)[C@H]3CCCC(=O)N3)CC2)ncc1Cl)c1ccc(Cl)cc1Cl` [Example 1.238] it was less than 100 nM; in that of `C[C@@H](Nc1nc(N2CCN(C(=O)[C@H]3CCC(=O)N3)CC2)ncc1N)c1ccc(Cl)cc1Cl` [Example 1.095], less than 100 nM.
For the compound `C[C@@H](Nc1nc(N2CCN(C(=O)[C@H]3CCC(=O)N3)CC2)ncc1F)c1ccc(F)cc1Cl` [Example 1.085], the concentration for half-maximal inhibition (IC50) was less than 100 nM.
In the case of `C[C@@H](Nc1nc(N2CCN(C(=O)[C@H]3CN(C)C(=O)N3)CC2)ncc1Cl)c1ccc(Cl)cc1Cl` [Example 1.227] it was less than 100 nM; in that of `C[C@@H](Nc1nc(N2CCN(C(=O)C[C@H]3CCCN3)CC2)ncc1OC(F)F)c1ccc(Cl)cc1Cl` [Example 1.166], less than 100 nM.
In the case of `C[C@@H](Nc1nc(N2CCN(C(=O)CCN3CCCC3=O)CC2)ncc1Cl)c1ccc(Cl)cc1Cl` [Example 1.191] it was 100 to 1000 nM.

Source of the values: US20230382894A1, “CCR4 ANTAGONISTS” (CHEMOCENTRYX, INC., priority 2022, published 2023).
